Measured values: patent publication US20260048066A1, “TREATMENT OF NEURODEGENERATIVE DISORDERS UTILISING METHYLTHIONINIUM (MT)-CONTAINING COMPOUNDS” (WISTA LABORATORIES LTD, priority 2022, published 2026)
Where two headings read alike, the source gives them in different places.

Key:
[1] = LUCIDITY trial: plasma HMT/MT levels; assay type: in vivo; conditions: human, oral
Method: At Visits 2, 3, 7 and 10, timed morning blood samples are collected for determination of plasma level of the drug. Samples are collected prior to dosing and then at 1, 2, and 4 hours post dose. A single blood sample for apolipoprotein E (ApoE) is obtained from participants who provide informed consent at any time after eligibility determination and prior to Visit 7. Blood may also be analyzed for other biomarkers for possible future research related to determination of potential biomarker predictors or surrogates for treatment response, to be described in a separate protocol.
All patients received 16 mg/day (i.e. 8 mg twice daily) from Visit 7 onwards.
The steady-state plasma concentrations (Visit 4. 1 h post-dose) in each dosing arm was investigated further. Patients were grouped based on plasma concentration.

[2] = test system: participants with severity ranging from mild cognitive impairment (MCI) to moderate AD; assay: LUCIDITY Phase 3 trial: cognitive (ADAS-cog), functional (ADCS-ADL) and brain atrophy outcomes; assay type: in vivo, human
Source text: The LUCIDITY trial (NCT03446001; EudraCT: 2017-003558-17) is a Phase 3, randomized, double-blind, placebo-controlled, outpatient trial to evaluate the safety, efficacy, and tolerability of hydromethylthionine mesylate monotherapy in participants with severity ranging from mild cognitive impairment (MCI) to moderate AD. The initial 12-month blinded period is followed by a 12-month, open-label extension period to provide comparative, delayed-start data. There are 76 study sites located in Canada, France, Italy, Poland, Spain, United Kingdom and United States. The protocol was approved by an institutional review board or independent ethics committee at each site.
Following screening, eligible participants are randomized at baseline in a 4:1:4 ratio to receive hydromethylthionine mesylate 16 mg/day, hydromethylthionine mesylate 8 mg/day, or placebo. Following completion of the 52-week double-blind treatment period, all participants continue open-label treatment with hydromethylthionine mesylate 16 mg/day for a further 52 weeks. Participants who were randomized to start on HMTM are considered early-starters; patients who begin on placebo and switch to HMTM at week 52 are considered delayed starters. Unlike a traditional delayed start design, in which participants remain blinded to treatment throughout the trial, treatment during weeks 52 to 104 is open-label, although participants and the site study staff remain blinded to prior treatment assignment. Randomization was stratified by severity (three levels: MMSE 16-19, 20-25, or 26-27, with a target ratio of approximately 2:3:1), prior use of symptomatic treatments (AChEls and/or memantine-two levels: prior use or none), and region (two levels: Canada/USA or UK/Europe). To achieve this target, enrolment was monitored and controlled at the site level for high recruiting sites and capped as needed at the study level. Patients who dropped out after randomization were not replaced, but participants were encouraged to continue with study visits off treatment until the scheduled completion of the double-blind treatment period (Visit 7). Only participants who continued in the study and receive hydromethylthionine mesylate treatment up to and including the last visit (Visit 10) without the addition of concomitant AChEls and/or memantine were eligible for continued treatment in a subsequent expanded access program.
The active and placebo treatment formulations are tablets that look visually the same. Hydromethylthionine mesylate can cause variable urinary discoloration. Therefore, to maintain blinding, the placebo group receives tablets containing a urinary discolourant (MTC, 4 mg) included among blank tablets containing only excipients on a varying schedule with an average frequency of 2/week.
Dosing frequency of 4 mg MTC tablets was on a varying schedule, such that each patient received a 4 mg tablet among the blanks on average twice per week. All subjects (on all arms) received 4 tablets at two times of day. This allowed for 2×4 mg followed by 2×4 mg to give 16 mg/day dose. 4 tablets were also given daily for placebo (2×placebo then 2×placebo) with 4 mg MTC tablets inserted at a rate of 2 per week i.e. 2 MTC tablets out of 28 per week, with remainder being true placebo.
Participants had to be aged less than 90 years and meet the diagnostic criteria for probable AD or MCI-AD and must not have been taking an AChEl or memantine, for at least 60 days at Baseline. They must have been community-dwelling, have a mini mental state exam (MMSE) score of 16-27, and with functional impairment as evidenced by a Clinical Dementia Dating (CDR) stage of 0.5 to 2 at screening. […] All patients must also have at least one study partner, consenting to their own participation; study partners can be changed so long as they have sufficient contact to complete outcome and safety assessments meaningfully and verify compliance with trial treatment. […]

[3] = test system: participants with severity ranging from mild cognitive impairment (MCI) to moderate AD; assay: LUCIDITY trial: safety and tolerability; assay type: in vivo, human
Method: All safety assessments are performed during Screening to assess subject eligibility, by an independent qualified medical assessor not involved in efficacy assessments. For the enrolled participants, safety assessments are undertaken at Baseline and at each clinic visit after 4, 13, 26, 39, and 52 weeks during the double-blind treatment period, as well as after 56 (telephone assessment, or on-site in UK), 78, and 104 weeks in the open-label, delayed-start phase; when needed to follow up on a treatment-emergent adverse event (AE); and upon early termination (Table 1). Patients are followed as needed for the resolution or stabilization of any AE, consistent with the investigator's medical judgement.

[4] = Completed hydromethylthionine mesylate Phase 3 studies: estimated treatment effect; assay type: in vivo, human
Method: Sample size estimations to achieve 90% power (two-sided alpha=0.05) to detect a difference between hydromethylthionine mesylate 16 mg/day and placebo, the primary treatment group comparison in the double-blind treatment period, have been performed for the two co-primary clinical end points, assuming a withdrawal rate of 20% to 25%. The study sample size of approximately 450 is based on the ADCS-ADL23, which has a larger standard deviation (SD) than ADAS-Cog11. Based on an estimated decline in ADCS-ADL23 over 52 weeks in the control arm of 7.7 units with an estimated SD of 8.5 units, the study will have >90% power to detect a reduction in decline of 3.4 units or more. The 3.4-unit effect size is derived from an estimated treatment effect of 5.0±1.6 (mean±standard error) units in the completed hydromethylthionine mesylate studies. Based on an estimated decline of 6.5 units in ADAS-Cog11 over 52 weeks with an estimated SD of 5.9 units, 200 participants per treatment arm provide >90% power to detect a reduction in decline of 2.6 units or more, provided by a conservative value of the estimated treatment effect based on pooled completed Phase 3 studies of −5.2±1.3 (mean±standard error) units in completed hydromethylthionine mesylate studies.

red cells = conditions: in vivo, administered intravenously; cited from earlier work
[5] = LUCIDITY trial: plasma HMT/MT levels; assay type: in vivo, human; conditions: MTC 4 mg twice weekly; after 12 months of treatment
[6] = 16 mg/day, whole study population, MCI to moderate disease

Compound CN(C)c1ccc2c(c1)Sc1cc(N(C)C)ccc1N2 [HMT, N3,N3,N7,N7-tetramethyl-10H-phenothiazine-3,7-diamine] has a concentration at 1 h ([1]; all dosing arms pooled, steady-state plasma, 1 h post-dose, read-out: Mean value HMT conc) of 0.2 ng/mL, a concentration at 1 h ([1]; all dosing arms pooled, sub-group BLLOQ (values set to zero), 1 h post-dose, read-out: Mean value HMT conc) of 0 ng/mL and a concentration at 1 h ([1]; all dosing arms pooled, sub-group high, 1 h post-dose, read-out: Mean value HMT conc) of 0.41 ng/mL. It also gave a concentration at 1 h ([1]; all dosing arms pooled, sub-group mid, 1 h post-dose, read-out: Mean value HMT conc) of 0.04 ng/mL and a concentration at 1 h ([1]; all dosing arms pooled, sub-group ultralow, 1 h post-dose, read-out: Mean value HMT conc) of 0.01 ng/mL.
In the case of CN(C)c1ccc2c(c1)Sc1cc(N(C)C)ccc1N2.CS(=O)(=O)O.CS(=O)(=O)O [LMTM, N,N,N′,N′-tetramethyl-10H-phenothiazine-3,7-diaminium bis(hydromethanesulfonate)], the “disease progression by change in cognitive function (p=0.0008) and brain atrophy (p<0.0001) against matched ADNI subjects” value ([2]; 16 mg/day) is reported as “Statistically significant reductions in disease progression”, the “decline in cognitive and functional measures” value ([2]; 16 mg/day LMTM as monotherapy) is reported as “zero or minimal decline” and the “decline on ADAS-cog11 over the first 12 months” value [2, 6] is reported as 1.3 ADAS-cog11 units. For the same compound, the “decline on ADCS-ADL23 over the first 12 months” value [2, 6] was −1.0 ADCS-ADL23 units, the “cognitive improvement over baseline on the ADAS-cog13 scale” value ([2]; 105 patients with MCI, 16 mg/day, at 6 months (p=0.0002), 12 months (p=0.0391) and 18 months (p=0.0473)) was 2 units and the “cognitive decline in the first 9 months” value ([2]; 147 patients with mild/moderate AD, 16 mg/day) was 2.5 unit. For the same compound, the “cognitive decline over the following 9 months” value ([2]; 147 patients with mild/moderate AD, 16 mg/day, months 9 to 18) was “no further decline”, the “rate of progression of brain atrophy” value ([2]; MCI participants, HMTM 16 mg/day, versus ADNI MCI subjects (p<0.0001)) was “significantly less than in ADNI MCI subjects” and the “mean change on the instrumental activities of daily living subscale of ADCS-ADL” value ([2]; MCI patients, 16 mg/day, at 6, 12 and 18 months) was “remained above the pre-treatment baseline”. For the same compound, the “reduction in functional decline relative to published meta-analysis of placebo decline data” value ([2]; mild/moderate AD, 16 mg/day, ADCS-ADL) was “about 75%”, the “functional decline on the ADCS-ADL scale” value ([2]; mild/moderate AD, 16 mg/day, at 12 months) was −2 units and the “functional decline on the ADCS-ADL scale” value ([2]; mild/moderate AD, 16 mg/day, at 18 months) was −3 units. For the same compound, the “treatment effects on cognitive and functional decline versus placebo decline data of anti-amyloid trials” value ([2]; over 18 months) was “about three-fold larger”, the concentration at 1 h ([1]; 8 mg/day, 8 mg/day LMTM arm, sub-group BLLOQ (set to zero), steady state 1 h post-dose, read-out: Mean HMT conc) was 0 ng/mL and the concentration at 1 h ([1]; 8 mg/day, 8 mg/day LMTM arm, sub-group high, steady state 1 h post-dose, read-out: Mean HMT conc) was 0.26 ng/mL. For the same compound, the concentration at 1 h ([1]; 8 mg/day, 8 mg/day LMTM arm, sub-group mid, steady state 1 h post-dose, read-out: Mean HMT conc) was 0.05 ng/mL, the concentration at 1 h ([1]; 16 mg/day, 16 mg LMTM/day group, week 4, 1h post dose, read-out: overall mean plasma concentration) was 0.5 ng/mL and the concentration at 1 h ([1]; 16 mg/day, 16 mg/day LMTM arm, sub-group BLLOQ (set to zero), steady state 1 h post-dose, read-out: Mean HMT conc) was 0 ng/mL. It also gave a concentration at 1 h ([1]; 16 mg/day, 16 mg/day LMTM arm, sub-group high, steady state 1 h post-dose, read-out: Mean HMT conc) of 0.5 ng/mL, a concentration at 1 h ([1]; 16 mg/day, 16 mg/day LMTM arm, sub-group mid, steady state 1 h post-dose, read-out: Mean HMT conc) of 0.04 ng/mL and a concentration at 1 h ([1]; 16 mg/day, 16 mg/day LMTM arm, sub-group ultralow, steady state 1 h post-dose, read-out: Mean HMT conc) of 0.02 ng/mL. The “treatment-related serious adverse events and amyloid related imaging abnormalities (ARIA)” value [3] was “no treatment-related serious adverse events or evidence of amyloid related imaging abnormalities (ARIA)”, the “estimated treatment effect on ADCS-ADL23 (mean±standard error)” value ([4]; completed hydromethylthionine mesylate studies) was 5.0±1.6 units and the “estimated treatment effect on ADAS-Cog11 (mean±standard error)” value ([4]; pooled completed Phase 3 studies) was −5.2±1.3 units. For the same compound, the “MT uptake into red cells, fold higher compared with MTC” value (red cells) was “approximately 20 fold”.
For CN(C)c1ccc2nc3ccc(N(C)C)cc3[s+]c2c1 [MTC, methylthioninium chloride], the “treatment effect on ADAS-cog compared to expected decline” value ([2]; control group (4 mg MTC twice weekly), high plasma HMT group, 12 months) was -4.73±2.01, the ADAS-cog decline ([2]; control group (4 mg MTC twice weekly), ultra-low plasma HMT cases, 12 months) was 3.75±0.79 and the “AD patients with plasma levels above 0.10 ng/ml (Cmax)” value [5] was 89%.
